{"source": "ChEMBL document CHEMBL5537151", "about": "“Design, synthesis and bioactivity evaluation of novel fusion peptides and their CPT conjugates inducing effective anti-tumor responses on HER2 positive tumors” (Eur J Med Chem, 2024)", "key": {"[1]": {"test_system": "SK-BR-3", "test": "Induction of apoptosis in human SK-BR-3 cells assessed as caspase-3 activation by measuring increase in green fluorescence incubated for 24 hrs by GreenNuc substrate/Hoechst 33342 staining based fluorescence microscopic analysis", "type": "functional, cell-based"}, "[2]": {"target": "T1, DNA topoisomerase 1 (Homo sapiens) (UniProt P11387)", "T1 sequence (whole entry)": "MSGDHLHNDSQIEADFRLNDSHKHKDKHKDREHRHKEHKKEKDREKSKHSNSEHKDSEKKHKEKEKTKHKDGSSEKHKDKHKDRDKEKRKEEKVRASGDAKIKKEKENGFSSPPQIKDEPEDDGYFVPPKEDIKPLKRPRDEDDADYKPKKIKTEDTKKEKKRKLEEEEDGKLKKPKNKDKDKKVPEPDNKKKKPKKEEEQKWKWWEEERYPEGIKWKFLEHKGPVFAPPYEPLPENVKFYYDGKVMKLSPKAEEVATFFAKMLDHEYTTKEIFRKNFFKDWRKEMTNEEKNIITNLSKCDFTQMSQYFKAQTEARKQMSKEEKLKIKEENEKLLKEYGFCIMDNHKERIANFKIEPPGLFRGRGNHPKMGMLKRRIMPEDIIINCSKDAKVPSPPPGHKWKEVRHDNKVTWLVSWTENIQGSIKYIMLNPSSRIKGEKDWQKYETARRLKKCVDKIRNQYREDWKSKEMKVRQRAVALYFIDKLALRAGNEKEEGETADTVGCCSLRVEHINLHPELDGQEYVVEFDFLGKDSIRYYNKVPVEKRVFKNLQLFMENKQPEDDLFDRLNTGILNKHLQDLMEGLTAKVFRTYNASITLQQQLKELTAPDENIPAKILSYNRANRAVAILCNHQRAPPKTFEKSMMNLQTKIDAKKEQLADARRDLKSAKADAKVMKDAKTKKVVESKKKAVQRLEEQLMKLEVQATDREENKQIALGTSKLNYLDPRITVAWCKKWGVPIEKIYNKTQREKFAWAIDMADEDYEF", "test": "Inhibition of topoisomerase 1 (unknown origin) assessed as reduction in DNA relaxation by measuring increase in supercoiled DNA level pretreated for 20 mins in water bath followed by pBR322 DNA addition and measured after 30 mins by agarose gel electrophoresis", "settings": "dose 1-100 µM, time 50.0 min"}, "[3]": {"test": "Toxicity in nude mouse xenografted with human SK-BR-3 cells assessed as increase in ALT level at 8 umol/kg, iv administered every 3 days for 14 days", "type": "organism-based", "settings": "in vivo, 336 h, dose 8 µmol/kg, time 14 day"}}, "note": "Activity calls are given as the source filed them. No cut-off for these calls is given here. Peptide text beside a SMILES is read from it. * marks the point of attachment. X1 = CCC1(C(=O)OCCS*)C(=O)OCc2c1cc1n(c2=O)Cc2cc3ccccc3nc2-1", "data": [{"smiles": "CC[C@H](C)[C@H](NC(=O)[C@@H]1CCCN1C(=O)[C@@H](NC(=O)[C@H](C)N)C(C)C)C(=O)N[C@@H](C)C(=O)N[C@@H](CCC(N)=O)C(=O)N[C@@H](CCCCN)C(=O)N[C@@H](CSSCCOC(=O)C1(CC)C(=O)OCc2c1cc1n(c2=O)Cc2cc3ccccc3nc2-1)C(=O)NCC(=O)N[C@@H](Cc1ccccc1)C(=O)N[C@@H](CC(C)C)C(=O)NCC(=O)N[C@@H](CC(N)=O)C(=O)N1CCC[C@H]1C(=O)N[C@@H](CC(N)=O)C(=O)N[C@@H](Cc1c[nH]c2ccccc12)C(=O)NCC(=O)N[C@@H](CCCNC(=N)N)C(=O)N[C@@H](CO)C(=O)N[C@@H](Cc1c[nH]c2ccccc12)C(=O)N[C@@H](Cc1ccc(O)cc1)C(=O)N[C@@H](CC(N)=O)C(=O)N[C@@H](CCC(N)=O)C(=O)N[C@@H](CCCNC(=N)N)C(=O)N[C@@H](Cc1ccccc1)C(=O)N[C@@H](CCCCN)C(N)=O", "note": "(stereo partly drawn) (H-AVPIAQKC(X1)GFLGNPNWGRSWYNQRFK-NH2)", "values": [{"measurement": "Activity", "setting": "[1]", "result": "Active"}, {"measurement": "inhibition", "setting": "[2]", "result": "Dose-Dependent Effect"}, {"measurement": "Activity", "setting": "[3]", "result": "Toxic"}]}]}
